Results from US12146880B2, “Artificial transcription factors comprising a sliding domain and uses thereof” (priority 2013, dated 2024).
Like-named read-outs stand apart in the source and are kept apart here. Primed or numbered codes have the meaning given here. Ends that are not written are not given here. TMR = fluorescent label conjugated to the Cys side chain; TMR″ = tetramethylrhodamine label

What was measured:
phage λ DNA = assay: Sliding assay: total internal reflection fluorescence microscopy of single TMR-labeled peptides on flow-stretched phage λ DNA; type: biochemical, bacteriophage λ; details: for estimated 1D diffusion constants, D: peptides diffusing along λ-DNA, low salt buffer (FIG. 6); for 1D diffusion constant, D+SD / 1D diffusion constant, D+SEM: single molecule sliding trajectories; for 1D diffusion constant, D+SD: spread = standard deviation (FIGS. 7-12); for 1D diffusion constant, D+SEM: spread = standard mean error (FIGS. 7-12)
Description: In vitro biophysical characterization of search process may be as follows. The search dynamics may be studied in vitro by directly observing fluorescently tagged compounds search DNA and bind their targets with a fluorescence microscope. In an exemplary method, linear fragments of DNA derived from bacteriophage λ (˜50 kb) are tethered on a glass coverslip and illuminated with TIRF microscopy. Flowing fluorescently tagged peptides over the coverslip stretches out the DNA hydrodynamically, and the peptides may be directly visualized as they search the DNA. Using computational algorithms, the peptides may be tracked and biophysical parameters such as the rate of diffusive translocation on DNA may be calculated from the estimated trajectories.
[…]. A flow cell was constructed on top of the cover slip such that when laminar flow is applied, the DNA stretches in the direction of flow and orients itself parallel to and in close proximity to the surface of the cover slip. Evanescent waves from a laser reflecting off the coverslip-buffer interface were used to illuminate a very small volume (˜1 pL) with a few hundred nanometers of the glass surface. The interaction of a single, TMR-labeled peptide with DNA was visualized by a CMOS camera (ORCA-Flash 4.0 from Hamamatsu) with 5 ms time-resolution. Despite the optical resolution limit imposed by diffraction, the centroid position of each signal in each frame is determined with sub-diffraction-limited resolution, typically 1-30 nm for bright fluorescent conjugates.
Labeled peptides were infused at concentration of 100-200 pM at rates of 20-50 mL/hour. High flow rates were chosen to drive the longitudinal DNA fluctuation faster than the imaging frame rate. The assay buffer consisted of 10 mM PBS (2 mM NaCl, 0.1 mM β-mercaptoethanol, 0.05 mM EDTA, 5% (v/v) glycerol, 0.01% (v/v) Tween-20, pH 6.8).

λ-DNA [1] = details: cited from earlier work; for D1 ± s.e.: results from Xiong et al
30 bp dsDNA [2] = assay: Fluorescence polarization (FP) DNA binding experiments; details: Table S5; pH 7.4
λ-DNA [3] = assay: Single molecule flow stretching experiments (1D diffusion of dye-labeled molecular sleds on λ-DNA); type: biochemical, bacteriophage λ; details: for D1 ± s.e.: Table S5, 2 mM NaCl buffer, pH 7.4, >50 trajectories
Description: Single Molecule Flow Stretching Experiments: The experimental details have been described by Xiong et al. Briefly, flow cells were constructed by sandwiching a double-sided tape with pre-cut channels between a poly(ethylene glycol) (PEG) functionalized coverslip and a PDMS slab containing inlet and outlet holes. The biotin-λ-DNA was made by ligating a DNA oligo with a biotin attached to the 5′ overhang of λ-DNA, and then immobilized onto the flow channel surface by utilizing biotin and streptavidin chemistry. Samples were infused at 10-400 pM concentrations at rates of 25 ml/hr. The assay buffer consisted of 10 mM phosphate buffer, 2 mM NaCl, 50 μM EDTA, 20 mM ethanol, 5% (v/v) glycerol, 0.01% Tween-20 and 0.1% (v/v) $-mercaptoethanol, and the pH was adjusted to 7.4 by adding aliquots of concentrated NaOH solution. Individual dye-labeled molecules were imaged by using a home-built total internal reflection fluorescence microscope based on a Nikon Ti body with a Hamamatsu ORCA-Flash 4.0 VI camera. Applicants used customized single particle tracking software to process the raw image data^11.
To study the motion of single molecules bound to DNA, Applicants applied a single-molecule flow-stretching assay that prepares long double-stranded DNA molecules as spatially extended templates for analysis of binding and transport activity of molecular sleds labeled with fluorescent dye molecules. […] In this assay (see a schematic in FIG. 19), functionalized DNA, e.g., biotin-k-DNA, was immobilized to a flow channel surface by one end and a laminar flow was applied to flow stretch the DNA. The flow rate was chosen so that the contribution of DNA fluctuations to the apparent motion of DNA-bound molecules along the DNA is negligible and the trajectories of single molecules were tracked by time-lapse fluorescence imaging. Here, Applicants applied the flow-stretching assay to study one-dimensional diffusion of modified peptides, peptide analogs and synthetic small molecules bound to DNA.

30 bp dsDNA [4] = details: Table S1; Cy3B conjugated to Cys residues; results from Xiong et al; cited from earlier work

(K)13: TMR-labeled lysine homopolymer of 13 residues, SEQ ID NO: 52 (KKKKKKKKKKKKK; also: TMR-labeled, place not given here)
estimated 1D diffusion constants, D (phage λ DNA): 17.3 ± 5.3 million bp²/s

C(-TMR)-(K)13: TMR conjugated to Cys residue, SEQ ID NO: 36 (C(TMR)KKKKKKKKKKKKK)
D1 ± s.e. (λ-DNA [1]; Table S3): 19.9 ± 1.3 M(bp^2/S)

C(-TMR)-(R)13: TMR conjugated to Cys residue, SEQ ID NO: 37 (C(TMR)RRRRRRRRRRRRR)
D1 ± s.e. (λ-DNA [1]; Table S3): 12.9 ± 0.5 M(bp^2/S)

Cy3B-pentaethylenehexamine [Cy3B-PEHA]
Kd (30 bp dsDNA [2]): 1320 ± 248 nM | effect of increasing the salt concentration on the D1 value (λ-DNA [3]; 2 mM NaCl vs 20 mM NaCl buffers, pH 7.4 (FIG. 14)): does not increase | D1 ± s.e. (λ-DNA [3]): 10.1 ± 0.5 M(bp^2/S) | D1 ± s.e. (λ-DNA [3]; listed as PHEA-Cy3B): 10.1±0.5 M(bp^2/S)

FHHHHH
estimated 1D diffusion constants, D (phage λ DNA): 14.9 ± 6.9 million bp²/s

GRKKRRQRRRPPQ (also: TMR label, place not given here) [TAT]
estimated 1D diffusion constants, D (phage λ DNA): 21 ± 7.5 million bp²/s

GVQSLKRRRCF [pVlc-Cy38]
D1 ± s.e. (λ-DNA [1]; Table S1, Cy3B conjugated to Cys residues): 35.1 ± 0.8 M(bp^2/S) | sliding by itself (one-dimensional diffusion constant) (λ-DNA [1]; literature reference 11 (Xiong)): 35.2±0.8 M(bp2/s) | Kd (30 bp dsDNA [4]): 378 ± 20 nM

KRARNTEAARRSRAR [GCN4 helix]
1D diffusion constant, D+SD (phage λ DNA): 12.8±5.5 ×10^6 bp^2s^−1 | 1D diffusion constant, D+SEM (phage λ DNA): 12.8±0.6 ×10^6 bp^2s^−1

KRARNTEAARRSRAR-GSGSGS-KRRR (KRARNTEAARRSRARGSGSGSKRRR) [GCN4 helix-linker-KRRR]
1D diffusion constant, D+SD (phage λ DNA): 11.3±4.1 ×10^6 bp^2s^−1 | 1D diffusion constant, D+SEM (phage λ DNA): 11.3±0.6 ×10^6 bp^2s^−1

KRARNTEAARRSRAR-GSGSGS-pVIc [GCN4 helix-linker-pVIc]
1D diffusion constant, D+SD (phage λ DNA): 9.6±4.3 ×10^6 bp^2s^−1 | 1D diffusion constant, D+SEM (phage λ DNA): 9.6±0.7 ×10^6 bp^2s^−1

KRRR ({TMR″}-KRRR)
estimated 1D diffusion constants, D (phage λ DNA): 20.3 ± 7.9 million bp²/s

NVKRRTHNVLERQRRNELKRSFFALRDQ [cMyc helix]
1D diffusion constant, D+SD (phage λ DNA): 12.8±5.0 ×10^6 bp^2s^−1 | 1D diffusion constant, D+SEM (phage λ DNA): 12.8±0.3 ×10^6 bp^2s^−1

STSRHKKLMFKTE ({TMR″}-STSRHKKLMFKTE) [C-terminal sequence of p53]
estimated 1D diffusion constants, D (phage λ DNA): 17.3 ± 5.3 million bp²/s

TMR-(K)13: TMR conjugated to the N-terminal amine, SEQ ID NO: 38 ({TMR″}-KKKKKKKKKKKKK)
D1 ± s.e. (λ-DNA [1]; Table S3): 8.9 ± 0.5 M(bp^2/S)

TMR-(R)13: TMR conjugated to the N-terminal amine, SEQ ID NO: 39 ({TMR″}-RRRRRRRRRRRRR)
D1 ± s.e. (λ-DNA [1]; Table S3): 7.7 ± 0.7 M(bp^2/S)
